Results on 12 molecules are retold here after paper PMC7281506, “Bengamide Analogues Show A Potent Antitumor Activity against Colon Cancer Cells: A Preliminary Study” (Marine Drugs, 2020).

In data set [1] the test system is SW480 colon cancer cell line. The data set is described as follows: Proliferation assay (Sulforhodamine B), SW480. The note with it: Homo sapiens; SW480, 72 h treatment, mean ± SD of triplicate samples. Format: cell-based. How it is done: (§1) The T84, SW480, HCT15, HT29 and MC38 colon cancer cell lines were selected to assay the bengamide effect. A normal colon fibroblast cell line (CCD18) was included in the analysis. In addition, a cell line of another tumor type (breast cancer) was studied (MCF7). All cell lines were grown in Dulbecco’s modified Eagle’s medium (DMEM) supplemented with fetal bovine serum (10%) and a mix of penicillin-streptomycin (1%) (Sigma-Aldrich, Madrid, Spain). Cell lines were maintained at 37 °C and 5% CO2 in a humidified incubator.
(§2) The different cell lines were seeded in 48-well plates at a cell density of 3 × 10^3 cells/well for MC38, 5 × 10^3 cells/well for T84, SW480, HCT15 and CCD18, 15 × 10^3 cells/well for HT29 and 4 × 10^3 cells/well for MCF7. After attaching to the well, the treatments, Ben I and Ben V (analogues 5 and 10, respectively), were added in a wide range of doses determined by the cell line from an initial stock of 0.3 mg/mL for Ben I and 6.9 mg/mL for Ben V, both dissolved in water. The treatments were maintained for 72 h. Elapsed this time, the cells were fixed with trichloroacetic acid at 10%, stained with Sulforhodamine B (Sigma-Aldrich, Madrid, Spain) and the dye was lifted with Trizma® (Sigma-Aldrich, Madrid, Spain) at 10% following a previously established protocol. Doxorubicin and 5-Fluorouracil were used as reference compounds in breast and colon cell lines, respectively.

Data set [2] deals with HCT15 resistant colon cancer cell line. In words: Proliferation assay (Sulforhodamine B), HCT15. The note with it: Homo sapiens, HCT-15; HCT15, 72 h treatment, mean ± SD of triplicate samples. Type of data set: cell-based. As to the method:
as §1, §2

Data set [3] relates to CCD18 normal colon fibroblast cell line. The data set is described as follows: Proliferation assay (Sulforhodamine B), CCD18. Type of data set: cell-based. The following applies: Homo sapiens, CCD18, 72 h treatment, mean ± SD of triplicate samples. How it is done:
as §1, §2

Data set [4] has as its system MC38 mouse colon cancer cell line. In words: Proliferation assay (Sulforhodamine B), MC38. Type of data set: cell-based. The note with it: MC-38, MC38, 72 h treatment, mean ± SD of triplicate samples. As to the method:
as §1, §2

Data set [5] has as its system HT29 colon cancer cell line. In words: Proliferation assay (Sulforhodamine B), HT29. Type of data set: cell-based. The following applies: Homo sapiens, HT-29; HT29, 72 h treatment, mean ± SD of triplicate samples. How it is done: as §1, §2
Data set [6] relates to T84 colon cancer cell line. The data set is described as follows: Proliferation assay (Sulforhodamine B), T84. Format: cell-based. The following applies: Homo sapiens; T84, 72 h treatment, mean ± SD of triplicate samples. As to the method: as §1, §2
The subject of data set [7] is MDA-MB-435 human breast cancer cells. The note with it: cited from earlier work.
The test system of a further data set is cancer cell line A549. Set-up: method as in PMID 26514647. The note with it: A549, Figure 1; read-out: IC50 (cytotoxicity); cited from earlier work.
In the next data set the test system is CCD18 normal colon cells. In words: Cell cycle assay (PI, flow cytometry), CCD18. Format: cell-based, human. The note with it: CCD18, 48 h; for SubG1 and S phase change vs control: doses of IC50. How it is done:
(§3) To assess the effect of treatments in the cell cycle, a cancer cell line (T84) and a normal cell line (CCD18) were seeded in 6-well plates at a density of 1.5 × 10^5 and 1 × 10^5 cells/well, respectively. […] In addition, untreated cells were used as a negative control and cells treated with 5-FU at its IC50 at 48 h as a positive control. After this time, the culture medium of each treatment was collected in a clean cytometry tube, the wells were washed with PBS at 4 °C and this wash was added to the previous tube. The cells were detached with a trypsin-EDTA mixture and also added to the tube. Next, the tubes were centrifuged at 3500 rpm for 3 min, the supernatant was discarded, and the pellet was resuspended in 100 µL of PBS. After this, 900 µL of 70% cold EtOH was added to each tube while the tubes were vortexed, then the tubes were placed on ice and incubated at 4 °C for 10 min. After this time, two washes were carried out with PBS to remove ethanol and the pellets were resuspended in 250 µL of PBS, to which 250 µL of DNA extraction solution was added (192 mL of 0.2 M Na2HPO4 + 8 mL of 0.1 M citric acid, pH = 7.8). The samples were incubated at 37 °C for 10 min, centrifuged and the supernatant discarded. Finally, 250 µL of propidium iodide (PI)/RNAse (ImmunoStep, Salamanca, Spain) solution was added and the samples were incubated for 10 min at 37 °C in the dark. Thereafter, the samples were analyzed by FAC Scan on a Becton Dickinson analyzer cytometer (Becton Dickinson, Franklin Lakes, NJ, USA).

Another data set concerns T84 cells. In words: Cell cycle assay (PI, flow cytometry), T84. Type of data set: cell-based, human. The following applies: T84, 48 h; for G2/M phase change vs control: IC25 and IC50. As to the method:
as §3

Data set [8] has as its system MCF7 breast cancer cell line. The data set is described as follows: Proliferation assay (Sulforhodamine B), MCF7. The following applies: Homo sapiens; MCF7, 72 h treatment, mean ± SD of triplicate samples. Type of data set: cell-based. As to the method: as §1, §2
The next data set deals with human erythrocytes. In words: Hemolysis test using human erythrocytes. Format: cell-based. The note with it: light microscopy after treatment. How it is done: (§4) To evaluate the effect of Ben I and Ben V compounds on blood cells, a hemolysis test using human erythrocytes and a toxicity test using WBC were carried out. Different blood cells (erythrocytes and WBC) were isolated from blood samples taken from healthy donors and exposed to a wide range of doses of both Ben I and Ben V compounds (0.01–40 µM) following our previously described protocol. Briefly, the erythrocytes were diluted 50 times their initial concentration in PBS, seeded in conical bottom 96-well plates and treated with the different treatments for 1 h at 37 °C under stirring. Following this, the plate was centrifuged, 100 µL of the supernatant was transferred to a new 96-well flat-bottom plate and the absorbance at 492 nm was determined. Erythrocytes treated with Triton X-100 to 20% were used as a positive control and as a negative control, erythrocytes treated with PBS were used. In the case of erythrocytes, the percentage of hemolysis (%HR) was calculated with the following formula: %HR=Abs(sample)−Abs(−control)/Abs(+control)−Abs(−control)×100.

Data set [9] is described as follows: Hemolysis test using human erythrocytes. Type of data set: cell-based. The note with it: human erythrocytes isolated from blood of healthy donors, 1 h at 37 °C, highest doses (range 0.01–40 µM), read-out: level of hemolysis. How it is done: as §4
Data set [10] in a line: Toxicity test in white blood cells (CCK-8). Type of data set: cell-based. The following applies: human; WBC, 1 and 12 h of exposure, all doses tested (0.01–40 µM). How it is done: as §4, with “Erythrocytes treated with Triton X-100 to 20% were used as a positive control and as a negative control, erythrocytes treated with PBS were used.” left out
As for the WBCs, they were seeded in flat-bottom 96-well plates in RPMI-1640 medium supplemented with FBS (10%) and a mixture of antibiotic (1%) at a density of 2 × 10^4 cells/well. […] The CCK-8 reagent was added to each well and after 3 h of incubation the absorbance was measured at 450 and 620 nm to determine the viability according to the manufacturer.

The conditions of data set [11]: clinical candidate; cited from earlier work.
The mark [12] stands for this setting: read-out: IC50 (cytotoxicity), MDA-MB-435, Figure 1.

Like-named read-outs stand apart in the source and are kept apart here.

As for `O=c1[nH]cc(F)c(=O)[nH]1` [5-fluorouracil, reference compound], the 50% inhibitory concentration (IC50) in [1] is 6350 ± 540 nM; in data set [2] it was 6580 ± 350 nM; in [3], 7350 ± 410 nM; in data set [4], 330 ± 10 nM; in data set [5], 6140 ± 940 nM; in data set [6], 2680 ± 160 nM.
`CO[C@@H](C(=O)N[C@H]1CCCCN(CCOC(=O)C2CCCCC2)C1=O)[C@H](O)[C@@H](O)[C@H](O)/C=C/C(C)(C)C` [Ben III]: the IC50 in data set [7] (setting [12]) was 17 nM.
As for `CO[C@@H](C(=O)N[C@H]1CCCCNC1=O)[C@H](O)[C@@H](O)[C@H](O)/C=C/C1CCCC1` [Ben II], in [7] (setting [12]), the IC50 was 440 nM.
`CO[C@@H](C(=O)N[C@H]1CCc2ccccc2NC1=O)[C@H](O)[C@@H](O)[C@H](O)/C=C/C(C)(C)C` [Ben IV]: the IC50 with cancer cell line A549 is 9 nM.
On to `CO[C@@H](C(=O)N[C@H]1CCCCNC1=O)[C@H](O)[C@@H](O)[C@H](O)/C=C/C(C)(C)C` [Ben I], for which the figures for the “G2/M phase change vs control” value in the data set with CCD18 normal colon cells and with T84 cells were “slight increase” and “statistically significant (p < 0.05) G2/M phase increase”, respectively. Further, the “SubG1 and S phase change vs control” value in the data set on CCD18 normal colon cells is recorded as “marked increase”. Besides, the IC50 in data set [1] was 590 ± 70 nM; in data set [2], 1900 ± 150 nM; in data set [3] it was 4700 ± 280 nM; in data set [7] (setting [12]) it was 630 nM; in [8], 490 ± 50 nM; in [4] it was 1600 ± 130 nM. For the same molecule, the IC50 was 1020 ± 190 nM in [5] and 360 ± 30 nM in data set [6]. Moreover, in the data set on T84 cells, the “SubG1 phase change vs control” value is recorded as “No differences were observed with the control”. For the same molecule, the “erythrocytes agglutination or modification of morphology” value with human erythrocytes was “none of these compounds caused erythrocytes agglutination or modification of their morphology”. The hemolysis at 1 h in data set [9] is roughly 2%. In data set [10], this molecule registered a viability of roughly 100%.
Regarding `CO[C@@H](C(=O)N[C@@H](C)C(=O)NCCCOC(=O)C1CCCCC1)[C@H](O)[C@@H](O)[C@H](O)/C=C/C(C)(C)C` [Ben V], the “G2/M phase change vs control” value in the data set on CCD18 normal colon cells is on record as “slight increase”; in the data set on T84 cells it was “this increase was much greater”. The “SubG1 and S phase change vs control” value in the data set on CCD18 normal colon cells is on record as “marked increase”. The IC50 is 80 nM in data set [1]; 2440 ± 250 nM in data set [2]; 5080 ± 390 nM in data set [3]; 4 nM in [7] (MDA-MB-435 human breast cancer cells); 130 ± 10 nM in data set [8]; 6510 ± 1120 nM in data set [4]. Further, the IC50 came out at 660 ± 180 nM in data set [5] and 70 ± 20 nM in [6]. Besides, the “G0/G1 and S phases change vs control” value in the data set on T84 cells is reported as “slight reduction”. The “SubG1 phase change vs control” value with T84 cells is reported as “No differences were observed with the control”. Besides, the “erythrocytes agglutination or modification of morphology” value with human erythrocytes is on record as “none of these compounds caused erythrocytes agglutination or modification of their morphology”. Moreover, in data set [9], the hemolysis at 1 h is roughly 2%. In data set [10], this molecule yielded a viability of roughly 100%.
In the case of `CCCCCCCCCCCCCC(=O)O[C@H]1CC[C@H](NC(=O)[C@H](OC)[C@H](O)[C@@H](O)[C@H](O)/C=C/C(C)C)C(=O)NC1` [Bengamide A, bengamide A], the IC50 in [7] (setting [12]) is 1 nM.
`CCCCCCCCCCCCCC(=O)O[C@H]1CC[C@H](NC(=O)[C@H](OC)[C@H](O)[C@@H](O)[C@H](O)/C=C/C(C)C)C(=O)N(C)C1` [Bengamide B]: in data set [7] (setting [12]), the 50% inhibitory concentration (IC50) is 2.4 nM.
Consider `CO[C@@H](C(=O)N[C@H]1CCCCNC1=O)[C@H](O)[C@@H](O)[C@H](O)/C=C/C(C)C` [Bengamide E], for which the concentration for half-maximal inhibition (IC50) in [7] (setting [12]) is 3300 nM.
In the case of `CO[C@@H](C(=O)N[C@H]1CC[C@@H](OC(=O)C2CCCCC2)CNC1=O)[C@H](O)[C@@H](O)[C@H](O)/C=C/C(C)(C)C` [LAF389], the pharmacokinetic properties result in data set [11] is “poor pharmacokinetic properties”. Also, the IC50 in data set [7] (setting [12]) was 40 nM.
Turning to `COc1cccc2c1C(=O)c1c(O)c3c(c(O)c1C2=O)C[C@@](O)(C(=O)CO)C[C@@H]3O[C@H]1C[C@H](N)[C@H](O)[C@H](C)O1` [doxorubicin, reference compound], the IC50 in data set [8] came out at 40 ± 10 nM.
As for Bengamide F, in data set [7] (setting [12]), the IC50 is 2900 nM.
